Experimental data: publication PMC4640093, “Lipophilic prodrugs of nucleoside triphosphates as biochemical probes and potential antivirals” (Nature Communications, 2015)

Columns and labels:
[1] = Chemical hydrolysis in PBS, pH 7.3; type: physicochemical; conditions: for t1/2(1) PBS, pH=7.3: removal of first masking unit (half-lives of 3); for t1/2(1) PBS, pH=7.3 / t1/2(2) PBS, pH=7.3: PBS pH 7.3, 37 °C; for t1/2(2) PBS, pH=7.3: second hydrolysis step, half-lives of intermediate 4 to give d4TTP 19
Procedure: Stock solutions (50 mM in DMSO-d6) of the appropriate compounds were prepared. After dilution of 11 μl with 100 μl Millipore water and 189 μl DMSO-d6 to 1.9 mM hydrolysis solutions the reaction was started by the addition of 300 μl PBS (50 mM, pH 7.3). The solution was incubated at 37 °C in a thermomixer. An initial aliquot (25 μl) was taken directly and analysed by analytical HPLC at 265–266 nm. Further aliquots were taken for monitoring the kinetic hydrolysis. The exponential decay curves (pseudo-first order) based on absolute integral values were calculated with commercially available software (OriginPro 9.0G) and yielded the half-lives t1/2(1) and t1/2(2) of the prodrugs via one determination.

HIV-1(IIIB) = test: Anti-HIV activity assay, HIV-1 in wild-type CEM/0 cells; type: cell-based; conditions: HIV-induced giant cell formation, mean±s.d., n=2–3
Procedure: (§1) Inhibition of HIV-1(IIIB)- and HIV-2(ROD)-induced cytopathicity in wild-type CEM/0 and TK-deficient CEM/TK^− cell cultures was measured in microtitre 96-well plates containing ∼3 × 10^5 CEM cells ml^−1 infected with 100 CCID50 of HIV per millilitre and containing appropriate dilutions of the test compounds. After 4−5 days of incubation at 37 °C in a CO2-controlled humidified atmosphere, CEM giant (syncytium) cell formation was examined microscopically. The EC50 (50% effective concentration) was defined as the compound concentration required to inhibit HIV-induced giant cell formation by 50%.

HIV-2(ROD) [2] = test: Anti-HIV activity assay, HIV-2 in wild-type CEM/0 cells; type: cell-based; conditions: read-out: EC50 CEM HIV-2
Procedure: as §1

HIV-2(ROD) [3] = test: Anti-HIV activity assay, HIV-2 in TK-deficient CEM/TK− cells; type: cell-based; conditions: thymidine kinase-deficient CEM/TK− cells, mean±s.d., n=2–3
Procedure: as §1

[4] = Cytotoxicity: inhibition of CEM cell proliferation; type: cell-based, human; conditions: human, CEM cells (CD4+ T-cells), 50% cytostatic concentration, mean±s.d., n=2–3
pig liver esterase (PLE) = test: Enzymatic hydrolysis with pig liver esterase (PLE) in PBS; type: in vitro ADME; conditions: PLE in PBS pH 7.3, 37 °C; for t1/2(1) PLE: removal of first masking unit (half-lives of 3); for t1/2(2) PLE: second hydrolysis step, half-lives of intermediate 4
Procedure: Furthermore, 140 μl of the 6.0 mM solution was diluted with 105 μl DMSO-d6 and 700 μl 50 mM PBS buffer. The reaction was started by addition of 52.5 μl of PLE in PBS buffer (3 mg ml^−1) and the mixture was incubated at 37 °C in a thermomixer. At different times, aliquots (125 μl) were taken and treated as follows: (a) for 3a–g,l,m and 4a,e the reaction was stopped by addition to 132.5 μl MeOH. […] (b) For 3h,i,k,n and 4j, the sample was directly frozen in liquid nitrogen.

CD4+ T-cell (CEM) = test: Cytotoxicity: inhibition of CEM cell proliferation; type: cell-based, human; conditions: 50% cytostatic concentration, mean±s.d., n=2–3
[5] = Enzyme-catalysed hydrolysis in CEM cell extracts; conditions: human CEM cell extract, 37 °C
Procedure: The hydrolysis mixtures were analysed by means of analytical RP-18-HPLC.
A volume of 10 μl of the appropriate 50 mM DMSO-d6 stock solution was diluted to 6.0 mM hydrolysis solution by addition of 73.3 μl DMSO-d6. Seven different samples including 10 μl water and 10 μl hydrolysis solution were prepared. The reaction was started by addition of 50 μl human CEM cell extract and the mixture was incubated at 37 °C for different time periods of hydrolysis. The work-up depended on the particular compound: (a) for 3a–f,l,m,p and 4a,e the reactions were stopped by addition of 150 μl MeOH. The solution was kept on ice for 5 min followed by centrifugation for 5 min (13,000 r.p.m.). The supernatants were filtered (Chromafil RC-20/15 MS, 0.2 μm) and stored in liquid nitrogen. (b) For 3g–i,k,n and 4j, the samples were directly frozen in liquid nitrogen. The solution was defrosted followed by ultrasonication for 10 min. After centrifugation for 5 min the supernatants were filtered (Chromafil AO-20/3, 0.2 μm) and stored at −196 °C. (c) For 3j the mixture was diluted with 70 μl THF (HPLC grade) and frozen in liquid nitrogen followed by defrosting, ultrasonication, centrifugation, filtration and stored as described for (b). Samples were defrosted and 50–80 μl were subjected to HPLC analysis.
Human CD4^+ T-lymphocyte CEM cells were grown in RPMI-1640-based cell culture medium to a final density of ∼3·10^6 cells ml^−1. Then, cells were centrifuged for 10 min at 1,250 r.p.m. at 4 °C, washed twice with cold PBS and the pellet was resuspended at 10^8 cells ml^−1 and sonicated (Hielscher Ultrasound Techn., 100% amplitude, three·times for 10 s) to destroy cell integrity. The resulting cell suspension was then centrifuged at 10,000 r.p.m. to remove cell debris, and the supernatant divided into aliquots before being frozen at −80 °C and used.

HIV RT = target: T1, HIV RT (Human immunodeficiency virus type 1 group M subtype B, UniProt P03366); test: Primer extension assay with HIV reverse transcriptase using PLE hydrolysate; type: biochemical; conditions: hydrolysate after complete consumption of prodrug and intermediate; 2.5 μM, 37 °C, 10 min
T1 construct: Primer extension assays with HIV reverse transcriptase; purchased Roboklon
Procedure: To confirm the prodrug concept and thus the direct successful release of the biologically active triphosphate metabolite, the prodrug 3e was exposed to PLE and the hydrolysis monitored with RP-18-HPLC. After complete consumption of 3e as well as its intermediate 4e the solvents were removed. For the template/primer extension assay (Fig. 4a), HIV RT was incubated with the PLE hydrolysate as such (T*) or with the PLE hydrolysate in the additional presence of dCTP (T*, C), or dCTP+dGTP (T*, C, G) or all natural 2′-deoxynucleotides (N*). […] In addition, TriPPPro-TTP 3r was synthesized (Fig. 5) and also investigated in the same way. […] The primer could be fully extended till 30 nt when T* was added in the presence of dCTP and dGTP, as also the N* and N samples could.
The used polymerase HIV RT was obtained from Roboklon. The primer and template were purchased from Life Technologies.
The primer extension assays were performed under the following conditions:
The primer was labelled using [γ^32P]-ATP according to standard techniques. After 5-min incubation at 95 °C in 20 mM Tris-HCl (pH 7.6) and 50 mM NaCl, the hybridization/annealing of the primer to the template strand was achieved by a cooling phase from 95 to 20 °C over 3 h. […]

[6] = wild-type CEM cells, HIV-induced giant cell formation, mean±s.d., n=2–3

Compound | time in which amount of thymine doubles (cleavage of the glycosidic bond) ([1]; long chemical hydrolysis time periods) [h] | EC50 (HIV-1(IIIB); Human immunodeficiency virus 1, IIIB, CCRF-CEM) [µM] | EC50 (HIV-2(ROD) [2]; Human immunodeficiency virus 2, CCRF-CEM) [µM] | EC50 (HIV-2(ROD) [3]; Human immunodeficiency virus 2) [µM] | CC50 [4] [µM] | t1/2(1) PBS, pH=7.3 [1] [h] | t1/2(2) PBS, pH=7.3 [1] [h] | t1/2(1) PLE (pig liver esterase (PLE)) [h] | t1/2(2) PLE (pig liver esterase (PLE)) [h] | EC50 (HIV-1(IIIB)) [µM] | EC50 (HIV-2(ROD) [2]; [6]) [µM] | EC50 (HIV-2(ROD) [3]) [µM] | CC50 (CD4+ T-cell (CEM)) [µM] | t1/2(1) CEM [5] [h] | primer extension by HIV RT with PLE hydrolysate of the prodrug (HIV RT)
Cc1cn([C@H]2C=C[C@@H](CO)O2)c(=O)[nH]c1=O [d4T, 3′-deoxy-2′,3′-didehydrothymidine, reference compound] | 63 | 0.33 ± 0.11 | 0.89 | 150 ± 9 | 79 ± 3 | – | – | – | – | – | – | – | – | – | –
CCCCC(=O)Oc1ccc(COP(=O)(OCc2ccc(OC(=O)CCCC)cc2)OP(=O)(O)OP(=O)(O)OC[C@@H]2C=C[C@H](n3cc(C)c(=O)[nH]c3=O)O2)cc1 [3c, γ-Bis-(4-pentanoyloxybenzyl)-d4TTP] | – | – | – | – | – | 22 | 270 | 0.063 | 7.7 | 0.4 | 1.05 ± 0.3 | > 10 | 58 ± 3 | 0.43 | –
CCCCCCCCC(=O)Oc1ccc(COP(=O)(OCc2ccc(OC(=O)CCCCCCCC)cc2)OP(=O)(O)OP(=O)(O)OC[C@@H]2C=C[C@H](n3cc(C)c(=O)[nH]c3=O)O2)cc1 [3e, γ-Bis-(4-nonanoyloxybenzyl)-d4TTP] | – | – | – | – | – | 52 | 390 | 0.013 | 1.6 | 0.31 ± 0.01 | 0.62 ± 0.3 | 2.26 ± 1.03 | 52 ± 1 | 2.5 | immediate DNA chain termination
CCCCCCCCCCCC(=O)Oc1ccc(COP(=O)(OCc2ccc(OC(=O)CCCCCCCCCCC)cc2)OP(=O)(O)OP(=O)(O)OC[C@@H]2C=C[C@H](n3cc(C)c(=O)[nH]c3=O)O2)cc1 [3g, γ-Bis-(4-dodecanoyloxybenzyl)-d4TTP] | – | – | – | – | – | 68 | 410 | 0.95 | 8.3 | 0.21 ± 0.01 | 0.27 ± 0.06 | 0.72 ± 0.16 | 26 | 2.2 | –
